The numbers were not newly measured in patent US8143297B2, “Heterocyclic derivatives as modulators of ion channels” (Vertex Pharmaceuticals Incorporated, priority 2008, dated 2012), which cites them from elsewhere.

The structures appear in SMILES notation.

Settings in all cases: read-out: TTX IC50
Data set [1] addresses NaV1.3 (Homo sapiens, UniProt Q9NY46).
The target in data set [2] is NaV1.9 (Homo sapiens, UniProt Q9UI33).
Data set [3] addresses NaV1.2 (Homo sapiens, UniProt Q99250).
For data set [4], the target named is NaV1.8 (Homo sapiens, UniProt Q9Y5Y9).
The target of data set [5] is NaV1.6 (Homo sapiens, UniProt Q9UQD0).
Sequence of NaV1.6 (Q9UQD0 whole entry, looked up): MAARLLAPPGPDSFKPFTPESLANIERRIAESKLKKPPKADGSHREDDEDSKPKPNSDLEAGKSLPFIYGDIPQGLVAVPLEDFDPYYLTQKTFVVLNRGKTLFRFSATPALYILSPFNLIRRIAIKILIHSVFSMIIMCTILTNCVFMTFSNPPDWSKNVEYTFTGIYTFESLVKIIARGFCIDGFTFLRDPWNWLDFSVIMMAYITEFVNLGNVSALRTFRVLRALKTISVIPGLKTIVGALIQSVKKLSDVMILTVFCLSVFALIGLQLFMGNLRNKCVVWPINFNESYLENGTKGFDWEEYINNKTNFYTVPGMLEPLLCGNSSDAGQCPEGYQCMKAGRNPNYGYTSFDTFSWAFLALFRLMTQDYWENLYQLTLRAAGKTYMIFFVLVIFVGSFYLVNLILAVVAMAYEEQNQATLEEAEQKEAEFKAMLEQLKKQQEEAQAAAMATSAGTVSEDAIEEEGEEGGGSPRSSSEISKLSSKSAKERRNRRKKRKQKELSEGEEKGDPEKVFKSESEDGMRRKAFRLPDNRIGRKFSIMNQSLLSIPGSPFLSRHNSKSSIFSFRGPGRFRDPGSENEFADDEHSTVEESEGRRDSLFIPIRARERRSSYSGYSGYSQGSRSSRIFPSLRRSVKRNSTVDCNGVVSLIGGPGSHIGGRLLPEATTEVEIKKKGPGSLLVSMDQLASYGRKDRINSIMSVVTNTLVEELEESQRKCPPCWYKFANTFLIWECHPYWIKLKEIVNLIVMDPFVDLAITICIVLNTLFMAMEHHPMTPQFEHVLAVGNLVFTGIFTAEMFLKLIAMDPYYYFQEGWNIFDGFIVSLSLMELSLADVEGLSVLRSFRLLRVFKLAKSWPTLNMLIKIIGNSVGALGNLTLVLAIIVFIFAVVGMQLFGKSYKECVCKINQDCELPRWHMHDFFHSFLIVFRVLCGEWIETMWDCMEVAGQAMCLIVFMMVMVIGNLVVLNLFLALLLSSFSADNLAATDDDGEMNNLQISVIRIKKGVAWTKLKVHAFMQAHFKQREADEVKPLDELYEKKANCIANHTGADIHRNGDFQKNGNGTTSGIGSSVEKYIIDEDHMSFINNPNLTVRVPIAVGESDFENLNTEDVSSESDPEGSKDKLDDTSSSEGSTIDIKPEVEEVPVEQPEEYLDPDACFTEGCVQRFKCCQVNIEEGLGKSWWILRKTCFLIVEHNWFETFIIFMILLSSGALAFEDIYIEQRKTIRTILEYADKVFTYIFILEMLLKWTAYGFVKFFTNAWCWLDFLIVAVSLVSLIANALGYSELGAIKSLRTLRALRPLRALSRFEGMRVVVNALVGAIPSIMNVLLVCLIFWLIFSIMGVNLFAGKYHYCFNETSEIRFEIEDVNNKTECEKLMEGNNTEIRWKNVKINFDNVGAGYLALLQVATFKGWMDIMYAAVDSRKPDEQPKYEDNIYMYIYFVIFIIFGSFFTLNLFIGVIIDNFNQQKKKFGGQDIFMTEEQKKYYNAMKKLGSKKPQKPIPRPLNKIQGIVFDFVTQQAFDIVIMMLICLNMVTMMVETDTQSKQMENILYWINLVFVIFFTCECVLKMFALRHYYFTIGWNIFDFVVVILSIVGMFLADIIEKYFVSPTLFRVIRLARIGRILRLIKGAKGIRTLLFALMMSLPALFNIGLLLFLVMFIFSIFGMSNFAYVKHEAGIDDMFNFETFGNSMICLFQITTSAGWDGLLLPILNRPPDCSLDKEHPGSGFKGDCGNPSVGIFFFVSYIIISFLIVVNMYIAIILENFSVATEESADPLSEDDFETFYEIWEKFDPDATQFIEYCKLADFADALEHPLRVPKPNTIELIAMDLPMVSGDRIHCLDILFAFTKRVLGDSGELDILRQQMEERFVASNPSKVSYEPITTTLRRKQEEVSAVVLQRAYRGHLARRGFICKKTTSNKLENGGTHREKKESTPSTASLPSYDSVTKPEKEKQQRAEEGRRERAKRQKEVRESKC
For data set [6], the target named is NaV1.1 (Homo sapiens, UniProt P35498).

Sequence of NaV1.2 (Q99250 whole entry, looked up): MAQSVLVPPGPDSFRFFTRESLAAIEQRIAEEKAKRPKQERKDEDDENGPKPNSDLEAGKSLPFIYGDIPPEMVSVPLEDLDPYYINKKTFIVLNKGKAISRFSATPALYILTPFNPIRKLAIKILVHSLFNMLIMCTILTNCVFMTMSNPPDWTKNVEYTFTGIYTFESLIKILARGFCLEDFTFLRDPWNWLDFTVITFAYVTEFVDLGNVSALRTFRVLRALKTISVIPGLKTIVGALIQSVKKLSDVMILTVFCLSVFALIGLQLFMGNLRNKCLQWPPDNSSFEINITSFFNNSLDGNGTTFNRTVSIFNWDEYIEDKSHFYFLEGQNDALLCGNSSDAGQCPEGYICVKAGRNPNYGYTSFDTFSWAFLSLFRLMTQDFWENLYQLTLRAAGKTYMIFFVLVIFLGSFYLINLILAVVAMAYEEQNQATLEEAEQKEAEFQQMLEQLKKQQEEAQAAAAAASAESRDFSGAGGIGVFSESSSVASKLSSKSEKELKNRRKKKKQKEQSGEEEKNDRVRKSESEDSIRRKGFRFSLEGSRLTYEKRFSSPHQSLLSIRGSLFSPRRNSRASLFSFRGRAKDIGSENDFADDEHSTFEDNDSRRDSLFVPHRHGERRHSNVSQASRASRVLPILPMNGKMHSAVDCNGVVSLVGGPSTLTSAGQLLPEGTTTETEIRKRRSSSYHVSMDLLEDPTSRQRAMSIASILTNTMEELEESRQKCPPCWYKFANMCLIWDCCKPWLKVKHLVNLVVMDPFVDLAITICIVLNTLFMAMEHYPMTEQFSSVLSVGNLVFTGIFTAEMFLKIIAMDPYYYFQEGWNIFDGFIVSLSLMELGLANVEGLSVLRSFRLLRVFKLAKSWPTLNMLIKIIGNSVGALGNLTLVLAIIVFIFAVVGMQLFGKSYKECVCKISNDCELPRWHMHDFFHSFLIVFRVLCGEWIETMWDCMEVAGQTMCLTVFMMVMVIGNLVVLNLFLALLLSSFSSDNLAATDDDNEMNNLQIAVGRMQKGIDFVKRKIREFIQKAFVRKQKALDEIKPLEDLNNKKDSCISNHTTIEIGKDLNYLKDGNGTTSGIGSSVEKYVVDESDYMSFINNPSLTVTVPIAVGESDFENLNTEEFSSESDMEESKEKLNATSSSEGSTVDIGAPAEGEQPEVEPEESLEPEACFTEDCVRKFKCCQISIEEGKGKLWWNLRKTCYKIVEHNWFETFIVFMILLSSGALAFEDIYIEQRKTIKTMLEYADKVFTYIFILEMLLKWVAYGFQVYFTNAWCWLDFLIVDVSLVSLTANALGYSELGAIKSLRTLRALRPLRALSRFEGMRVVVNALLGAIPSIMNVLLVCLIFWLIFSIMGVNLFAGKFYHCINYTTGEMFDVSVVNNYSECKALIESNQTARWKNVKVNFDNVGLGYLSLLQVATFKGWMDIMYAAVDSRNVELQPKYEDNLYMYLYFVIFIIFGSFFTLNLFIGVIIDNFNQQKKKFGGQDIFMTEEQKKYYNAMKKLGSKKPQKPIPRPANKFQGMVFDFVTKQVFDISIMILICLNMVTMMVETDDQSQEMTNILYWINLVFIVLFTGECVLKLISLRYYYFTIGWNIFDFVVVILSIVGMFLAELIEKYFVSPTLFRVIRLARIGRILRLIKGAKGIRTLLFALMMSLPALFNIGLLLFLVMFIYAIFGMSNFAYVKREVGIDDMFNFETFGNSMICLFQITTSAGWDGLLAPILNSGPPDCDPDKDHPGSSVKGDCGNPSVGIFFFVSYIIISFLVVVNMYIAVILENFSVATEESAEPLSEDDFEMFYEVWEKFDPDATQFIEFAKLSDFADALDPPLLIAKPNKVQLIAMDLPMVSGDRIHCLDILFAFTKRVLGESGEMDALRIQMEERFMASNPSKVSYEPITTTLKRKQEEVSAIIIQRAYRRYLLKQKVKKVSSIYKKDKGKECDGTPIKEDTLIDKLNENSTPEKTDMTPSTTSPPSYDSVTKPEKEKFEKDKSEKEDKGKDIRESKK

With `NC1=N[C@H](O)[C@H]2[C@H]3O[C@]4(O)O[C@@H]([C@@H](O)[C@@]2(N1)[C@@H]4O)[C@]3(O)CO` [TTX, tetrodotoxin], the concentration for half-maximal inhibition (IC50) is 15 nM in data set [1]; 1000 nM in data set [2]; 10 nM in data set [3]; more than 50000 nM in data set [4]; 6 nM in data set [5]; 10 nM in data set [6].
